The values that follow come from patent publication US11376307B2, “Compositions and methods of treating cancer with glycomimetic peptides” (SUSAVION BIOSCIENCES, INC., priority 2018, dated 2022).

Positions of bridges follow the written chain, without caps; N, C: chain ends. Chains are numbered I, II in the order given.

For test [1], the target named is T1, human ASGPR-1 (Homo sapiens, UniProt P07306).
T1 construct: The extracellular domains of receptors, which were fused with the Fc domain of immunoglobulin IgG; purchased R&D Systems
T1 sequence (P07306 62-291 limits assumed): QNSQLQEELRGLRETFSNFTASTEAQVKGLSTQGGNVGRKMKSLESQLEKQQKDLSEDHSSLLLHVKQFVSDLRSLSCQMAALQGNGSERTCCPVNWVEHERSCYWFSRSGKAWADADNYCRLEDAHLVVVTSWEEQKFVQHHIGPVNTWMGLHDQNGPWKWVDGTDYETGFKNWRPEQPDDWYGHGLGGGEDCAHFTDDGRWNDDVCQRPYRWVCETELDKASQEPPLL
The test is described as follows: Inhibition of binding of multivalent GalNAc-PAA. To be noted: about 200 pmoles biotinylated GalNAc-PAA, increasing peptide. As to the method: (§1) FIGS. 3A-3D. sv6D as a mimetic of GalNAc. (FIG. 3A) Inhibition by sv6D of binding of multivalent GalNAc-PAA (GlycoTech Corp., Frederick, Md.) to recombinant rat CLEC10A and human ASGPR-1. The reaction mixture included approximately 200 pmoles of biotinylated GalNc-PAA and increasing concentrations of peptide. The figure includes average values from 3 independent experiments. (FIG. 3B) Biotinylated sv6D or GalNAc-PAA were incubated with rabbit antiserum raised against the 6D sequence (NQHTPR) (SEQ ID NO:1) conjugated to keyhole limpet hemocyanin (KLH). Binding was detected with streptavidin-peroxidase conjugate. Similar data were obtained in 2 experiments. (FIG. 3C) Inhibition by EGTA of binding of sv6D (pattern) or svL4 (solid) to CLEC10A and ASGPR-1, respectively. EGTA (1 mM) was added to the final concentrations indicated to assays. Retention of bound CLEC10A was determined by incubation with biotinylated anti-CLEC10A (goat IgG, R&D Systems) and detection with streptavidin-peroxidase conjugate (light grey circle). Similar data were obtained in 3 experiments. (FIG. 3D) Binding of svL4 and sv6D to human recombinant CLEC10A and ASGPR-1 as a function of concentration of peptide in the assay. The figure is representative of 4 separate assays.
(§2) To further determine whether sv6D interacts with the actual sugar binding site, the ability of sv6D to compete with GalNAc-PAA for binding was assayed.

Test [2] deals with T2, recombinant rat CLEC10A (Rattus norvegicus, UniProt P49301).
T2 construct: The extracellular domains of receptors, which were fused with the Fc domain of immunoglobulin IgG; purchased R&D Systems
T2 sequence (P49301 59-306 limits assumed): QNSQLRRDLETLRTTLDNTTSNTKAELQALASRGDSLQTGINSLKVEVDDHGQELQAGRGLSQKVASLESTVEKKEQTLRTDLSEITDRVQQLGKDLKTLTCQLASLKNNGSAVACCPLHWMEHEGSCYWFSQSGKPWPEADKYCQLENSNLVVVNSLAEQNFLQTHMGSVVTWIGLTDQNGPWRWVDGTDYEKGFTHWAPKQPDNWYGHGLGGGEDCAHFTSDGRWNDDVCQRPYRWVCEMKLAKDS
The test is described as follows: Inhibition of binding of multivalent GalNAc-PAA. The method, then: as §1, §2

The subject of test [3] is ID8 ovarian cancer cell line. The test is described as follows: Murine model of ovarian cancer, sv6D and anti-PD-1. The class given is in vivo, C57BL/6 mice. As to the method: FIGS. 9A-9B. Combination study of sv6D and anti-PD-1. (FIG. 9A) The design of the experiment and extension of survival of C57BL/6 female mice implanted with ovarian cancer cell line ID8 and treatments with anti-PD-1 and sv6D. Anti-PD-1 (rat anti-mouse, clone 29F.1A12) was administered intraperitoneally every other day, 200 μg protein per dose, between day 41 and 49 (white bars). sv6D was administered subcutaneously every other day at 0.1 nmol/g, starting on day 36, 51 or 87 (grey bars). […] (FIG. 9B) Kaplan-Meier survival curves of mice treated with anti-PD-1 and/or sv6D. […] For group 3, the Mantel-Cox log-rank test p=0.003 indicates the significance between treatment with the combination and antibody alone. Anti-PD-1, square; sv6D, dark triangle; anti-PD-1 followed by sv6D (Group 3 in FIG. 9A), light triangle; PBS, circle.
We tested whether sv6D would extend effectiveness of anti-PD-1. Five doses of anti-PD-1 (200 μg in PBS) were injected intraperitoneally on alternate days between days 41 and 49. sv6D was injected subcutaneously immediately after the treatment with anti-PD-1 and continued on alternate days to the end of the study (FIG. 9A, Group 3).

Test [4] relates to peritoneal immune cells. The test is described as follows: Expansion of peritoneal cells after subcutaneous injection, flow cytometry. The class given is in vivo, Balb/c mice. As to conditions: 24 h after a single s.c. injection, 1 nmol/g. The method, then: Flow Cytometry Healthy C57BL/6 male mice, 10 weeks old, were injected subcutaneously with peptides on alternate days. Peritoneal cells were isolated from mice 24 h after dosing by injecting ice cold PBS (containing 3% FBS) into the peritoneal cavity, gently massaging the abdomen, and then collecting the fluid, which was transferred into K2EDTA-treated tubes for evaluation of specific biomarkers. Cells from three mice in each group were pooled, counted and divided among FACS tubes (1×10^6 cells per tube). […]
Cells were incubated with the antibodies for 30 min at 4° C. in the dark. Following staining, the cells were washed two times with PBS/3% FBS and immediately analyzed with a MACSQuant flow cytometer (Miltenyi Biotech, Inc., San Diego, Calif.). […]
To examine whether increases occurred in mature immune cells, peritoneal cells from Balb/c and C57BL/6 mice were analyzed by flow cytometry after cells were stained with the markers listed in Table 1. […] Shown in FIGS. 7A-7D are results expressed as cell counts for F4/80 CD11b CD86 (mature, active macrophages); CD11c (DCs); CD11c CD86 (activated DCs); CD4 CD69 (activated T cells); CD8 CD69 (activated cytotoxic T cells); NK1.1 CD3^+ CD69 (activated NKT cells); NK1.1 CD3^− CD69 (activated NK cells); CD19 (B cells); and CD19 CD73 CD80 CD273 (memory B cells). […]
(In general: In flow cytometry, cells or beads pass a laser one at a time.)

For “I: H-NQHTPRGGGSKK-NH2 / II: H-NQHTPRGGGSK / III: H-NQHTPRGGGS / IV: H-NQHTPRGGGS (amide I:11-IV:C, I:12-II:C, II:11-III:C) [sv6D]”, the “Inhibition of binding of GalNAc-PAA to ASGPR-1” value in test [1] is “inhibited”. Moreover, the “Inhibition of binding of GalNAc-PAA to CLEC10A” value in test [2] (about 200 pmoles biotinylated GalNAc-PAA, increasing peptide) was “inhibited”. In addition, the “Avidity relative to multivalent GalNAc-PAA” value in test [2] (from competition experiment) is given as “over an order of magnitude greater”. The Ascites formation result in test [3] (Group 5: sv6D from day 87 after anti-PD-1) is reported as “essentially complete suppression of ascites formation”. The Survival entry in test [3] (Group 6: hiatus of one week after a week of sv6D) is “survived only slightly longer than animals treated with PBS”; in test [3] (combination of anti-PD-1 with sv6D (Group 4)), “maximal survival”; in test [3] (single agent: anti-PD-1 200 μg i.p. x5 (Group 1), sv6D 0.1 nmol/g s.c. alternate days (Group 7)) it was “maximal survival”. In test [3] (sv6D alone vs. anti-PD-1), the Accumulation of ascites entry was “inhibited accumulation of ascites to a greater extent than anti-PD-1”.
In the case of “I: H-VQATQSNQHTPRGGGSKK-NH2 / II: H-VQATQSNQHTPRGGGSK / III: H-VQATQSNQHTPRGGGS / IV: H-VQATQSNQHTPRGGGS (amide I:17-IV:C, I:18-II:C, II:17-III:C) [svL4]”, the “Change in peritoneal macrophages, DCs, T cells and NK cells” value in test [4] was “Several-fold increases”.
